Assay results from US20040220205A1 (priority 2001, published 2004).
“And” between values parts separate entries of the source, which are not always exact repeats. Equal values may be shown once. Where a name gives a salt, the structure may show the parent alone.

Tests used:
[1] = tested on: dopamine release (striatum); assay: Microdialysis experiment (striatum) with one entero-coated tablet; assay type: in vivo; settings: rat striatum microdialysis
Protocol: One entero-coated tablet prepared as described in Example 1 and containing about 5 mg of NPA hydrochloride was administered to a rat in the way described in Pharmacological Experiment 2 and a standard microdialysis was carried out.
Pharmacological Experiment 2 was repeated but using an entero-coated tablet containing about 5 mg of mono-pivaloyl-apomorphine base instead of NPA hydrochloride.
(§1) Pharmacological Experiment 2 was repeated but using an enterocoated tablet prepared as described in Example 3 containing about 1 mg of mono-pivaloyl-N-propyl-noraporphine (MPNPA) base instead of NPA hydrochloride.

rat = assay: Behavioural experiment - entero-coated pill; assay type: in vivo
Protocol: One entero-coated tablet prepared as described in Example 1 and containing about 5 mg of NPA hydrochloride was placed under anesthesia (isoflurane) in the throat of a rat and pushed down the throat with a blunt instrument. Within five minutes, the rat was awake and exploring the cage. After about 3 to 4 hours, the rat began to show dopaminergic stimulatory signs like sniffing, chewing, penile licking, grooming and stereotypy with rearing, locomotor activity, intense sniffing and also licking. This stereotypy lasted for more than 24 hours.
as §1

rats = assay: Behavioural experiment - injection into duodenum (with oral control); assay type: in vivo, rat; settings: for duration of dopaminergic behavior: dur (total duration of action) / duration of dopaminergic behavior: intense stereotypy / duration of dopaminergic behavior: less intense stereotypy: rat, bolus injection into duodenum; for duration of dopaminergic behavior: intense stereotypy / duration of dopaminergic behavior: less intense stereotypy: period after injection
Description: These rats had been operated 1-14 days before the experiment. A plastic tubing was introduced entering through the duodenum wall at about the mid section and bent in such a way that it had its duct directed downwards (i.e. aiming downstream towards the jejunum and being about 2 cm long). An experienced scientist observed the animals for the entire period of pharmacological activity, scoring the behavior and emphasizing the following details:
yawning, sniffing, chewing, licking, rearing, grooming, penile grooming, locomotor activity and stereotypy. The total duration of action where one or several of these behaviors were present was scored.

[2] = earlier reports on symmetric di-esters of aporphines; cited from earlier work
[3] = one entero-coated tablet containing about 5 mg NPA hydrochloride
[4] = one entero-coated tablet containing about 5 mg, pushed down the throat
[5] = one entero-coated tablet containing about 5 mg mono-pivaloyl-apomorphine base
[6] = control experiment, administered orally to the same rat, 4 mg/kg

In the case of `CCCN1CCc2cccc3c2[C@H]1Cc1ccc(O)c(O)c1-3` [NPA hydrochloride, 6aR-(-)-N-propyl-norapomorphine], the “dopamine release, maximal decrease” value [1, 3] was “about 20% of control values”, the “time of maximal decrease in dopamine release” value [1, 3] was “after about four hours” and the “duration of maximal decrease in dopamine release” value ([1]; one entero-coated tablet containing about 5 mg NPA hydrochloride, until the experiment was stopped) was “lasting for several hours”. For the same molecule, the duration of stereotypy (rat; [4]) was “more than 24 hours” and the “time until dopaminergic stimulatory signs began” value (rat; [4]) was 3 to 4 h.
For monopivaloyl-apomorphine [Mono-Piv-Apo], the “duration of dopaminergic behavior: dur (total duration of action)” value (from here on “duration of dopaminergic behavior: dur”) (rats; 4.6 mg/kg) was 120 min, the “duration of dopaminergic behavior: intense stereotypy” value (rats; 4.6 mg/kg) was “intense stereotypy (5-105); less intense min” and the “duration of dopaminergic behavior: less intense stereotypy” value (“duration … less intense stereotypy” for short) (rats; 4.6 mg/kg) was 105 to 115 min. For the same molecule, the “duration of dopaminergic behavior: dur” value (rats; 5.9 mg/kg) was 135 min and 120 min, the “duration … less intense stereotypy” value (rats; 5.9 mg/kg, 5.9 mg/kg) was 105 to 130 min and 80 to 90 min and the “dopamine release at maximal decrease” value [1, 5] was 80 % of control values. The “maximal decrease of dopamine release” value [1, 5] was 20%, the “time after which dopamine release decreases” value [1, 5] was “about 60 minutes” and the “time until dopamine release is back to control values” [1, 5] was “after about eight hours”.
With `CN1CCc2cccc3c2[C@H]1Cc1ccc(O)c(O)c1-3` [Apomorphine Hydrochloride, apomorphine hydrochloride] the dopaminergic stimulation observed (rats; [6]) was “Very weak dopaminergic stimulation”, the “time period in which dopaminergic effects were observed” value (rats; [6]) was 10 to 20 min and the “duration of dopaminergic behavior: dur” value (rats; 4.0 mg/kg) was 90 min. For the same molecule, the “duration of dopaminergic behavior: intense stereotypy” value (rats; 4.0 mg/kg) was “intense stereotypy (5-75); less intense min”, the “duration … less intense stereotypy” value (rats; 4.0 mg/kg) was 75 to 85 min and the “duration of dopaminergic behavior: dur” value (rats; 5.0 mg/kg, hydrochloride) was 95 min and 60 min. For the same molecule, the “duration … less intense stereotypy” value (rats; 5.0 mg/kg, hydrochloride, 5 mg/kg) was 40 to 90 min and 45 to 55 min.
In the case of `CCCN1CCc2cccc3c2[C@H]1Cc1ccc(O)c(O)c1-3` [NPA, 6aR-(-)-N-propyl-norapomorphine], the “duration of dopaminergic behavior: dur” value (rats; 5.0 mg/kg) was > 540 min.
With `CCCN1CCc2cccc3c2C1Cc1ccc(O)c(OC(=O)C(C)(C)C)c1-3` (stereo not drawn) [MPNPA, mono-pivaloyl-N-propyl-noraporphine] the “period of continuous decrease of dopamine release” value ([1]; one entero-coated tablet containing about 1 mg MPNPA base) was “between one hour and four hours”, the dopamine release ([1]; one entero-coated tablet containing about 1 mg MPNPA base, at 18 hours after application of the pill) was 80 % of controls and the “dopamine release, maximal decrease” value ([1]; one entero-coated tablet containing about 1 mg MPNPA base, at four hours) was 30 % of controls. For the same molecule, the “period of intense stereotypy” value (rat; one entero-coated tablet containing about 1 mg MPNPA base, observed during the microdialysis experiment) was “between four hours and eight hours”.
For `CN1CCc2cccc3c2C1Cc1ccc(OC(=O)C(C)(C)C)c(OC(=O)C(C)(C)C)c1-3` (stereo not drawn) [di-pivaloyl ester, di-pivaloyl esters of apomorphine], the “activity compared with parent compound apomorphine” value [2] is listed as “much less active”.
